From ChEMBL document CHEMBL2203174, “SAR Development of Lysine-Based Irreversible Inhibitors of Transglutaminase 2 for Huntington's Disease” (ACS Med Chem Lett, 2012)
pIC50: −log10 of the molar value.

Columns and labels:
[1] = Ratio of IC50 for mouse transglutaminase 2 to IC50 for human transglutaminase 2
[2] = target: T1, Protein-glutamine gamma-glutamyltransferase (Homo sapiens, UniProt P21980); assay: Irreversible inhibition of transglutaminase 2
T1 sequence (P21980 whole entry): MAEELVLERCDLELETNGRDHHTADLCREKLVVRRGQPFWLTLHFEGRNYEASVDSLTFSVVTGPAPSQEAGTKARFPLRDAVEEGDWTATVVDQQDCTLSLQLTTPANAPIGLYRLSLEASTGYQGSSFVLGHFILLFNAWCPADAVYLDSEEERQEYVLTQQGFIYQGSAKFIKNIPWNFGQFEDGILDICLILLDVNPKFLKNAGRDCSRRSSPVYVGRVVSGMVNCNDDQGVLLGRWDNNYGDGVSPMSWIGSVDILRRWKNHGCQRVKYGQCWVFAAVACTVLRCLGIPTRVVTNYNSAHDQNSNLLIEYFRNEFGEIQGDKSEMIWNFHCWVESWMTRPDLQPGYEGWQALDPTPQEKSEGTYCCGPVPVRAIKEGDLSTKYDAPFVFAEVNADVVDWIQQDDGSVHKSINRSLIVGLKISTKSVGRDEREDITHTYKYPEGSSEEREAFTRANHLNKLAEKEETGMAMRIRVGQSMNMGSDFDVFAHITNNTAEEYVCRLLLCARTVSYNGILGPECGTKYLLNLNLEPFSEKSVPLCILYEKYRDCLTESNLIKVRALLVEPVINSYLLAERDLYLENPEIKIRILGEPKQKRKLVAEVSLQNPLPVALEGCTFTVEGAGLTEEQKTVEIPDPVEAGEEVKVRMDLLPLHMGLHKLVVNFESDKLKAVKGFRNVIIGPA

[3] = target: T2, Protein-glutamine gamma-glutamyltransferase E (Homo sapiens, UniProt Q08188); assay: Inhibition of transglutaminase 3
T2 sequence (Q08188 whole entry): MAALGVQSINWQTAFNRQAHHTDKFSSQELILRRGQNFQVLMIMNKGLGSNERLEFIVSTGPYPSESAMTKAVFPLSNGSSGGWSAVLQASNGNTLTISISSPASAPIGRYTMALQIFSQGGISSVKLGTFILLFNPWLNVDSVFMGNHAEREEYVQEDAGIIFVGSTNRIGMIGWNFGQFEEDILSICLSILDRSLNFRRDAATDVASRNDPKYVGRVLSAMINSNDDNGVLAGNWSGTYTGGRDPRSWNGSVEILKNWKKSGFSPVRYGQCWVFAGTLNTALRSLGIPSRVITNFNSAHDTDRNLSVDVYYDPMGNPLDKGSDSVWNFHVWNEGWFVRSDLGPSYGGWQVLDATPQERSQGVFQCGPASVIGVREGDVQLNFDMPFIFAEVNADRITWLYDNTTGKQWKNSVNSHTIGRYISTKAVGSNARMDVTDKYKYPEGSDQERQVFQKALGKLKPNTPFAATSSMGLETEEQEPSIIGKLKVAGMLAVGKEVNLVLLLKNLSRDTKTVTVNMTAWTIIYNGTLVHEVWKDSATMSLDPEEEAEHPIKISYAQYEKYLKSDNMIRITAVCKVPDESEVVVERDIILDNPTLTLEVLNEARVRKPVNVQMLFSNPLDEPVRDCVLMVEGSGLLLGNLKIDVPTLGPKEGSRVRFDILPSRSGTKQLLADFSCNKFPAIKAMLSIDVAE

[4] = target: T3, Protein-glutamine gamma-glutamyltransferase K (Homo sapiens, UniProt P22735); assay: Inhibition of transglutaminase 1
T3 sequence (P22735 whole entry): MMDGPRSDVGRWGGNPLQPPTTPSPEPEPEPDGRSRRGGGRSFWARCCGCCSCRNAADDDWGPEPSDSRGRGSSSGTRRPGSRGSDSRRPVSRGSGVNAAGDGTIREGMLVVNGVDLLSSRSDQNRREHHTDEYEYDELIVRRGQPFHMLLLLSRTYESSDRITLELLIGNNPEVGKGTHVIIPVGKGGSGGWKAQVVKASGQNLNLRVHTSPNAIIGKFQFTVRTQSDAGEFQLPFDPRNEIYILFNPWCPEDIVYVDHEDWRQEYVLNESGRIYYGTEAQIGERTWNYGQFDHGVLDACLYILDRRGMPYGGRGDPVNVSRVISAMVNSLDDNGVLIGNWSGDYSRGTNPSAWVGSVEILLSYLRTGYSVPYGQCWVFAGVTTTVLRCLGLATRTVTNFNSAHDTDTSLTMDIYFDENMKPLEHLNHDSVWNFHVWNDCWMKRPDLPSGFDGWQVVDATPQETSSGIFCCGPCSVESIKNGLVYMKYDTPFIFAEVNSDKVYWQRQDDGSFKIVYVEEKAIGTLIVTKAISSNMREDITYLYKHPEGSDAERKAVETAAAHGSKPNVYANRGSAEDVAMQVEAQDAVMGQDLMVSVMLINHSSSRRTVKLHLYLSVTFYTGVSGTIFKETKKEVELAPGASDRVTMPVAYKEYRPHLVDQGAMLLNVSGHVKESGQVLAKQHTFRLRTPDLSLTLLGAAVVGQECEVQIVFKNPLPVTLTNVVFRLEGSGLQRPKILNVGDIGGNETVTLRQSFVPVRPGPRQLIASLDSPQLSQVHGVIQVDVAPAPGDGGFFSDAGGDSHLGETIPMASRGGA

[5] = target: T4, Coagulation factor XIII A chain (Homo sapiens, UniProt P00488); assay: Inhibition of coagulation factor 13a
T4 sequence (P00488 whole entry): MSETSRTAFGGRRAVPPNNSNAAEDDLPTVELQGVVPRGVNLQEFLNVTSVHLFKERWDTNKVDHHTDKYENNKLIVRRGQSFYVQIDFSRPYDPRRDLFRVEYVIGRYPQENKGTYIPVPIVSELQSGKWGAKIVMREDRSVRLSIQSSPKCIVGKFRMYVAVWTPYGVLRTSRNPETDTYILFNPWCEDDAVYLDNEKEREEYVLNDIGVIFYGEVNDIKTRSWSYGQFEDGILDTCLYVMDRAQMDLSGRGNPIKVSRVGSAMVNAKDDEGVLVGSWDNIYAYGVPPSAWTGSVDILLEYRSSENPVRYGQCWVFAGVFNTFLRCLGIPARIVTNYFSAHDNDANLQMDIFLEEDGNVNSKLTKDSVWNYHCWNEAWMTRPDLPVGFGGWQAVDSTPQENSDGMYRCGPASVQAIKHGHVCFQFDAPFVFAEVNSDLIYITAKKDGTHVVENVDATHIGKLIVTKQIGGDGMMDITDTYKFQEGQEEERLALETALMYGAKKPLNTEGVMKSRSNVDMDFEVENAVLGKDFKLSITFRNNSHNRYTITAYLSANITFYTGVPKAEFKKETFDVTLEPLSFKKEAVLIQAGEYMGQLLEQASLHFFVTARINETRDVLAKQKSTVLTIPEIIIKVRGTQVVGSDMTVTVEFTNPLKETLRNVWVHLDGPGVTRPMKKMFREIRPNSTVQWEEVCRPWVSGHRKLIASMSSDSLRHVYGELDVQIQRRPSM

| SMILES | pIC50 [2] | further results |
| --- | --- | --- |
| C=CC(=O)NCCCC[C@H](NC(=O)OCc1ccccc1Cl)C(=O)O | 5.72 | – |
| C=CC(=O)NCCCC[C@H](NC(=O)OCc1ccccc1)C(=O)N1Cc2ccccc2C1 | 6.62 | – |
| C=CC(=O)NCCCC[C@H](NC(=O)OCc1c(F)cccc1F)C(=O)O | 5.00 | – |
| C=CC(=O)NCCCC[C@H](NC(=O)OCc1ccccc1C(F)(F)F)C(=O)O | 5.46 | – |
| C=CC(=O)N1CCC(C[C@H](NC(=O)OC(C)(C)C)C(=O)O)CC1 | < 4.10 | – |
| C=CC(=O)Nc1ccc(C[C@H](NC(=O)OCc2ccccc2)C(=O)O)cc1 | < 4.10 | – |
| C=CC(=O)NCCCC[C@H](NC(=O)OCc1ccc(C)cc1)C(=O)O | 4.85 | – |
| C=CC(=O)NCCCC[C@@H](CO)NC(=O)OCc1ccccc1 | 5.27 | – |
| C=CC(=O)NCCCC[C@H](NC(=O)c1ccc2ccccc2c1)C(=O)N1CCN(c2cccc(C)n2)CC1 | 5.80 | – |
| C=CC(=O)NCCCCCNC(=O)OCc1ccccc1 | 5.12 | – |
| C=CC(=O)NCCCC[C@H](NC(C)=O)C(=O)N1CCN(c2cccc(C)n2)CC1 | 6.72 | – |
| C=CC(=O)NCCCC[C@H](NC(=O)OCc1cccc(C(F)(F)F)c1)C(=O)O | 5.00 | – |
| C=CC(=O)NCCCC[C@H](NC(=O)OCc1ccc(C(F)(F)F)cc1)C(=O)O | 4.48 | – |
| C=CC(=O)NCCCC[C@H](NC(=O)OC(C)(C)C)C(=O)N1CCN(c2cccc(C)n2)CC1 | 6.07 | – |
| C=CC(=O)NCCCC[C@H](NC(=O)c1ccccc1)C(=O)N1CCN(c2cccc(C)n2)CC1 | 6.72 | – |
| C=CC(=O)NCCC1C[C@@H](C(=O)N2CCN(c3cccc(C)n3)CC2)N(C(=O)OC(C)(C)C)C1 (mixture of isomers) | 5.74 | – |
| C=CC(=O)NCCCC[C@H](NC(=O)OCc1ccccc1)C(=O)N1CCC(c2ccccc2)CC1 | 7.27 | pIC50 [3]: < 4.10; pIC50 [4]: 5.03; pIC50 [5]: 4.68 |
| C=CC(=O)NCCCC[C@H](NC(=O)OCc1cccc2ccccc12)C(=O)O | 4.85 | – |
| C=CC(=O)NCCCC[C@H](NC(=O)OCc1ccc2ccccc2c1)C(=O)O | 5.04 | – |
| C=CC(=O)NCCCC[C@H](NC(=O)OCc1ccc(F)cc1)C(=O)O | 5.10 | – |
| C=CC(=O)NCCCC[C@H](NC(=O)OC)C(=O)O | < 4.10 | – |
| C=CC(=O)NCCCC[C@H](NC(=O)OCc1ccccc1)C(=O)N(CC)CC | 5.85 | – |
| C=CC(=O)NCCCC[C@H](NC(=O)OCc1ccc([N+](=O)[O-])cc1)C(=O)O | 4.21 | – |
| C=CC(=O)NCCCC[C@H](NC(=O)OCc1ccc(C(C)(C)C)cc1)C(=O)O | 4.68 | – |
| C=CC(=O)NCCCC[C@H](NC(=O)OCc1ccc(CCCC)cc1)C(=O)O | 5.23 | – |

Further lines, with some results ahead:

| pIC50 [2] | SMILES | further results |
| --- | --- | --- |
| 6.21 | C=CC(=O)NCCCC[C@H](NC(=O)OCc1ccccc1)C(=O)N1CCN(C)CC1 | Ratio IC50 [1]: 2 |
| 6.18 | C=CC(=O)NCCCC[C@H](NC(=O)OCc1ccccc1)C(=O)N1CCC(F)(F)CC1 | – |
| 5.60 | C=CC(=O)NCCCC[C@H](NC(=O)OCc1ccccc1)C(=O)N1CCC1 | – |
| 6.24 | C=CC(=O)NCCCC[C@H](NC(=O)OCc1ccccc1)C(=O)N1CCCC1 | – |
| 7.11 | C=CC(=O)NCCCC[C@H](NC(=O)OCc1ccccc1)C(=O)N1CCN(c2cc(Cl)ccc2OC)CC1 | Ratio IC50 [1]: 2 |
| 5.57 | C=CC(=O)NCCCC[C@H](NC(=O)OCc1ccccc1)C(=O)O | – |
| 6.23 | C=CC(=O)NCCCC[C@H](NC(=O)OCc1ccccc1)C(=O)N1CCCCCC1 | – |
| 5.92 | C=CC(=O)NCCCC[C@H](NC(=O)OCc1ccccc1)C(=O)N1CCCCC1 | – |
| 5.96 | C=CC(=O)NCCCC[C@H](NC(=O)OCc1ccccc1)C(=O)N(C)C | – |
| 6.96 | C=CC(=O)NCCCC[C@H](NC(=O)OCc1ccccc1)C(=O)N1CCN(c2ccc(C(F)(F)F)cn2)CC1 | Ratio IC50 [1]: 2 |
| 6.80 | C=CC(=O)NCCCC[C@H](NC(=O)OCc1ccccc1)C(=O)N1CCN(c2ncccc2C(F)(F)F)CC1 | Ratio IC50 [1]: 2 |
| 6.64 | C=CC(=O)NCCCC[C@H](NC(=O)OCc1ccccc1)C(=O)N1CCN(c2ccc3ccccc3c2)CC1 | Ratio IC50 [1]: 2 |
| 6.59 | C=CC(=O)NCCCC[C@H](NC(=O)OCc1ccccc1)C(=O)N1CCN(c2ccccn2)CC1 | Ratio IC50 [1]: 2 |
| 6.77 | C=CC(=O)NCCCC[C@H](NC(=O)OCc1ccccc1)C(=O)N1CCN(c2ncccc2C)CC1 | Ratio IC50 [1]: 2 |
| 6.14 | C=CC(=O)NCCCC[C@H](NC(=O)OCc1ccccc1)C(=O)N1CCOCC1 | – |
| 7.26 | C=CC(=O)NCCCC[C@H](NC(=O)OCc1ccccc1)C(=O)N1CCN(c2cccc(C)n2)CC1 | Ratio IC50 [1]: 2 |
